Assay results reported in paper PMC11187126, “Structure and dynamics of the pyroglutamylated RF-amide peptide QRFP receptor GPR103” (Nature Communications, 2024).
No end group written: not given here.

Target: T1, GPR103 I26N-termA (Homo sapiens, UniProt Q96P65, I26A)
T1 construct: we used human full-length QRFPR-encoding plasmids; expressed in transfected cells; host or cells: HEK293 cells, pCAGGS vector
T1 sequence (Q96P65 1-431 I26A): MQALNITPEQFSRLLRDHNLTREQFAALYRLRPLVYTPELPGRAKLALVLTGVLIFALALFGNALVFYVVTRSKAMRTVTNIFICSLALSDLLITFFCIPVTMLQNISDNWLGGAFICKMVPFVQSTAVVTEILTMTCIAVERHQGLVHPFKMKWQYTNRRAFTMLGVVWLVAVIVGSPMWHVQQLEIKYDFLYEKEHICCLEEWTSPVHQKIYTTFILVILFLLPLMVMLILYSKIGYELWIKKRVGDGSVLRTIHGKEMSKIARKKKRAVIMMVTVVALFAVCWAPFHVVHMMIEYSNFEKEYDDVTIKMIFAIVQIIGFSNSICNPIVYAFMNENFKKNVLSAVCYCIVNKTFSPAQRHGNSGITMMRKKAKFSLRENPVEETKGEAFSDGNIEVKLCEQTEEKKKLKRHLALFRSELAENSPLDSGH
Assay: TGFα shedding assay; Exp. level WT (1:20)
Format: cell-based

Emax (mean): 95.1%
EC50 (n = 3): 43.7 nM
Emax (n = 3): 97.6 ± 5%
Substance: TSGPLGNLAEELNGYSRKKGGFSFRF-NH2 [QRFP26]
